Legend:
Assay type in all cases: in vivo, Arabidopsis thaliana
AtAIRP2 gene expression = experiment: Gene expression after ABA treatment by RT-PCR; conditions: atamdr mutant, 300 μM ABA hormone, 1 hour and 3 hours
Method: FIGS. 2a to 2d represent the expression patterns of AtAMDR in response to various abiotic stress conditions. Total RNA was prepared from light-grown, 7-day-old Arabidopsis seedlings, which had been treated with drought (FIG. 2a), cold (FIG. 2b), high salinity (300 mM NaCl) (FIG. 2c) or 100 μM ABA (FIG. 2d). Induction patterns of AtAMDR were investigated by RT-PCR. RD29A was used as representative control gene for drought, cold and salt stress, and Rab18 was used as control gene for ABA.
Total RNA was prepared from 7-day-old Arabidopsis seedlings, which had been treated with drought (1-2 h), cold (4° C. for 6-12 h), high salinity (300 mM NaCl for 1-3 h) or 100 μM ABA (1-3 h). Induction patterns of AtAMDR were investigated by RT-PCR.
In order to determine expressions of the AtAMDR gene to drought stress, the wild type Arabidopsis thaliana seedlings which were grown on medium for 2 weeks were exposed in the air, and sampled after 1 hour and 2 hours. In order to determine expressions of the AtAMDR gene to salt stress, the wild type Arabidopsis thaliana seedlings which were grown on medium for 2 weeks were treated with 300 mM sodium chloride, and sampled after 1 hour and 3 hours. […]
The AtAIRP2 gene expressions in various abiotic stresses were analyzed by RT-PCR. […]

[1] = tested on: mature leaves of wild-type and atamdr plants; experiment: ABA-induced H2O2 production analyzed by DAB staining; conditions: 0 or 100 μM ABA
Method: (§1) FIGS. 4a to 4c represent stomatal aperture and H2O2 production of wild-type, atamdr plants in response to different concentrations of ABA. […] Light-grown, 4-week-old mature leaves of wild-type and atamdr plants were incubated in stomatal opening solution for 2 h and transferred to solutions containing the 10 μM ABA for 2 h. Stomata on the abaxial surface were observed by light microscopy. […] Leaves from wild-type, atamdr plants were treated with 0 or 100 μM ABA for 2 h and transferred to 100 μg/mL DAB (3,3′-diaminobenzidine-4HCl) solution overnight. The presence and level of H2O2 in the leaves were visualized as a dark brown color.
To investigate the accumulation of H2O2, light-grown, 4-week-old mature leaves of wild-type (WT), atamdr plants were incubated in stomatal opening solution for 2 h and treated with 0 or 100 μM ABA. Leaves were transferred to 100 μg/mL DAB (3,3′-diaminobenzidine-4HCl) solution overnight, and washed and fixed by 96% ethanol. Leaves were observed after complete chlorosis (Luis David Maldonado-Bonilla et al.; Eur J Plant Pathol. 121:439449, 2008).
To investigate the accumulation of H2O2, light-grown, 4-week-old mature leaves of wild-type and atamdr plants were treated with 0 or 100 μM ABA, and stained with 100 ng/mL DAB (3,3′-diaminobenzidine-4HCl) solution in dark.

[2] = tested on: stomata of mature leaves of wild-type and atamdr mutant plants; experiment: ABA-induced stomatal closure (stomatal aperture measurement); conditions: 10 μm ABA for 2 h; for stomatal aperture (the ratio of width to length): 4-week-old leaves
Method: as §1
Mature leaves of light-grown, 4-week-old wild-type and atamdr mutant plants were used for the observation of mature stomata. Detached leaves were incubated in stomatal opening solution (10 mM MES-KOH, […] CaCl2, 10 mM KCl) for 2 h and then transferred to stomatal opening solution supplemented with 0 or 10 μM ABA for 2 h. Subsequently, epidermal strips were mounted on glass slides and observed with a light microscope.
Mature leaves of light-grown, 4-week-old wild-type and atamdr mutant plants were detached and incubated in stomatal opening solution and then transferred to stomatal opening solution supplemented with various concentrations of ABA (0 and 10 μM) for 2 h. […] Stomatal aperture of wild-type plants treated with 10 μm ABA was approximately 0.09 which was 2-fold closed than that of mutant, while stomatal aperture of atamdr mutant treated with 10 μm ABA was approximately 0.175, which was 1.94-fold compared to that of wild-type plants.

## CC1=CC(=O)CC(C)(C)[C@@]1(O)/C=C/C(C)=C\C(=O)O [ABA, abscisic acid]
AtAIRP2 gene expression
  AtAIRP2 gene expression: not affected
[1]; atamdr leaves
  accumulation of H2O2: significantly delayed
[1]; wild-type leaves
  accumulation of H2O2: drastically arisen
[2]
  stomatal aperture of atamdr mutant compared to that of wild-type plants: 1.94 fold
[2]; atamdr mutant
  stomatal aperture (the ratio of width to length): approximately 0.175
[2]; wild-type plants
  stomatal aperture (the ratio of width to length): approximately 0.09
